Assay results from ChEMBL document CHEMBL1201862, “PubChem BioAssay data set” (2004).
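Briefly, cells in 96-well plates were exposed to five compound concentrations for 48 h, and endpoints were estimated by linear interpolation. Abbreviation: GI50, concentration required for 50% inhibition of growth.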 Calls of active or inactive are those of the source. No stated cut-off is given here; in the data, active = GI50 up to about 1.1 µM and inactive = higher.

How the values were obtained:
Test in all cases: NCI-60 cell line screen, 48 h
NCI-H522 = tested on: NCI-H522
Malme-3M = tested on: Malme-3M
SR = tested on: SR
HCT-116 = tested on: HCT-116
T47D = tested on: T47D
KM12 = tested on: KM12
LOX IMVI = tested on: LOX IMVI
HOP-62 = tested on: HOP-62
TK-10 = tested on: TK-10
SK-MEL-2 = tested on: SK-MEL-2
MDA-N = tested on: MDA-N
EKVX = tested on: EKVX
SF-295 = tested on: SF-295
K562 = tested on: K562
NCI-H460 = tested on: NCI-H460
PC-3 = tested on: PC-3
ACHN = tested on: ACHN
MDA-MB-435 = tested on: MDA-MB-435
MCF7 = tested on: MCF7

Compound | GI50 (NCI-H522) | GI50 (Malme-3M) | GI50 (SR) | GI50 (HCT-116) | GI50 (T47D) | GI50 (KM12) | GI50 (LOX IMVI) | GI50 (HOP-62) | GI50 (TK-10) | GI50 (SK-MEL-2) | GI50 (MDA-N) | GI50 (EKVX) | GI50 (SF-295) | GI50 (K562) | GI50 (NCI-H460) | GI50 (PC-3) | GI50 (ACHN) | GI50 (MDA-MB-435) | GI50 (MCF7)
Cc1cc(Cl)nc(NC(=O)CSc2ccc(Cl)cc2)n1 | 95.7 µM (inactive) | 64.7 µM (inactive) | > 100 µM (inactive) | > 100 µM (inactive) | > 100 µM (inactive) | > 100 µM (inactive) | > 100 µM (inactive) | 79.1 µM (inactive) | > 100 µM (inactive) | > 100 µM (inactive) | > 100 µM (inactive) | > 100 µM (inactive) | > 100 µM (inactive) | > 100 µM (inactive) | > 100 µM (inactive) | > 100 µM (inactive) | > 100 µM (inactive) | > 100 µM (inactive) | –
FC(F)(Sc1ncccn1)c1nc2ccccc2o1 | > 100 µM (inactive) | > 100 µM (inactive) | 37.8 µM (inactive) | 84.3 µM (inactive) | > 100 µM (inactive) | > 100 µM (inactive) | – | > 100 µM (inactive) | > 100 µM (inactive) | > 100 µM (inactive) | > 100 µM (inactive) | – | > 100 µM (inactive) | 77.4 µM (inactive) | > 100 µM (inactive) | 89.1 µM (inactive) | > 100 µM (inactive) | 99.1 µM (inactive) | > 100 µM (inactive)
Cc1nnc2n1N=C(c1cc(F)c(Cl)cc1Cl)/C(=C/c1ccc(Cl)cc1)S2 | 20.7 µM (inactive) | 20.6 µM (inactive) | – | 7 µM (inactive) | 34 µM (inactive) | 12.8 µM (inactive) | 9.33 µM (inactive) | 15.7 µM (inactive) | 28.7 µM (inactive) | 8.15 µM (inactive) | 15.8 µM (inactive) | 9.42 µM (inactive) | 13.4 µM (inactive) | 17.5 µM (inactive) | 13.9 µM (inactive) | 20.6 µM (inactive) | 16.5 µM (inactive) | 13.6 µM (inactive) | 14.4 µM (inactive)
CC(O)(c1ccccc1)c1nccc2ccccc12 (stereo unspecified) | 50.5 µM (inactive) | 64.1 µM (inactive) | – | 61.4 µM (inactive) | 68.1 µM (inactive) | 36.4 µM (inactive) | 75.9 µM (inactive) | > 100 µM (inactive) | > 100 µM (inactive) | – | 23.4 µM (inactive) | – | 55 µM (inactive) | 35.8 µM (inactive) | 96.4 µM (inactive) | 22.6 µM (inactive) | > 100 µM (inactive) | 18.2 µM (inactive) | 80.9 µM (inactive)
C=CCOC(=O)CCCCCCCCCCCCCCCOC(=O)C1=C(CCC[C@@H](C)O[Si](C)(C)C(C)(C)C)NC(=O)N2[C@H](CC3(CC/C=C\[C@H](CC)O[Si](C(C)C)(C(C)C)C(C)C)OCCO3)CC[C@H]12 | > 100 µM (inactive) | > 100 µM (inactive) | – | > 100 µM (inactive) | > 100 µM (inactive) | > 100 µM (inactive) | – | > 100 µM (inactive) | > 100 µM (inactive) | > 100 µM (inactive) | > 100 µM (inactive) | > 100 µM (inactive) | > 100 µM (inactive) | – | > 100 µM (inactive) | > 100 µM (inactive) | > 100 µM (inactive) | > 100 µM (inactive) | > 100 µM (inactive)
C=C(CCOC)CCC1CCCCC(=C)[C@H]1OC(C)=O (stereo partly specified) | 41.8 µM (inactive) | – | 52.5 µM (inactive) | > 100 µM (inactive) | > 100 µM (inactive) | > 100 µM (inactive) | > 100 µM (inactive) | > 100 µM (inactive) | > 100 µM (inactive) | > 100 µM (inactive) | > 100 µM (inactive) | > 100 µM (inactive) | > 100 µM (inactive) | > 100 µM (inactive) | > 100 µM (inactive) | > 100 µM (inactive) | > 100 µM (inactive) | > 100 µM (inactive) | > 100 µM (inactive)
CSc1nc(Cl)c2c(n1)Sc1nc3ccccc3n1C2O (stereo unspecified) | 2.73 µM (inactive) | 4.91 µM (inactive) | – | 2.48 µM (inactive) | 15.3 µM (inactive) | 3.44 µM (inactive) | 0.861 µM (active) | 13.8 µM (inactive) | 7.13 µM (inactive) | 4.38 µM (inactive) | 2.86 µM (inactive) | 33.4 µM (inactive) | 21.3 µM (inactive) | 3.71 µM (inactive) | 13.4 µM (inactive) | 4.29 µM (inactive) | 5.89 µM (inactive) | 3.63 µM (inactive) | 4.02 µM (inactive)
CCC/C(Cl)=N\OC(=O)Nc1ccc(OC(F)(F)F)cc1 | 1.08 µM (active) | 1.68 µM (inactive) | – | 9.4 µM (inactive) | 2.79 µM (inactive) | 9.48 µM (inactive) | 2.72 µM (inactive) | 18.1 µM (inactive) | 3.3 µM (inactive) | 17.6 µM (inactive) | 13.5 µM (inactive) | 10.1 µM (inactive) | 16.3 µM (inactive) | 2.42 µM (inactive) | 20.5 µM (inactive) | 17.7 µM (inactive) | 2.19 µM (inactive) | 22.1 µM (inactive) | 8.26 µM (inactive)
O=C(C=P(c1ccccc1)(c1ccccc1)c1ccccc1)c1cccc(-c2cccc([N+](=O)[O-])c2)c1 | 1.86 µM (inactive) | 2.86 µM (inactive) | 2.58 µM (inactive) | 3.55 µM (inactive) | 4.9 µM (inactive) | 3.67 µM (inactive) | 2.56 µM (inactive) | 8.04 µM (inactive) | 3.18 µM (inactive) | – | 2.49 µM (inactive) | 4.3 µM (inactive) | 3.18 µM (inactive) | 2.99 µM (inactive) | 2.88 µM (inactive) | 2.84 µM (inactive) | 2.89 µM (inactive) | 2.68 µM (inactive) | 3.47 µM (inactive)
CC1=CC[C@H](C[C@H](C#CCCCC2OCCO2)O[Si](C(C)C)(C(C)C)C(C)C)C(=O)CC1 | – | > 100 µM (inactive) | > 100 µM (inactive) | > 100 µM (inactive) | > 100 µM (inactive) | > 100 µM (inactive) | > 100 µM (inactive) | > 100 µM (inactive) | > 100 µM (inactive) | > 100 µM (inactive) | > 100 µM (inactive) | > 100 µM (inactive) | > 100 µM (inactive) | > 100 µM (inactive) | > 100 µM (inactive) | > 100 µM (inactive) | > 100 µM (inactive) | > 100 µM (inactive) | > 100 µM (inactive)
COC(=O)c1cc2c(c(C(=O)OC)c1)CCC2 | 58.2 µM (inactive) | > 100 µM (inactive) | 30.3 µM (inactive) | 76.6 µM (inactive) | 63.5 µM (inactive) | – | 82.4 µM (inactive) | > 100 µM (inactive) | > 100 µM (inactive) | > 100 µM (inactive) | > 100 µM (inactive) | > 100 µM (inactive) | > 100 µM (inactive) | 59 µM (inactive) | > 100 µM (inactive) | 68.5 µM (inactive) | > 100 µM (inactive) | > 100 µM (inactive) | > 100 µM (inactive)
O=Cc1cc([N+](=O)[O-])no1 | – | > 10 µM (inactive) | 31.4 µM (inactive) | 11 µM (inactive) | 50.5 µM (inactive) | 18.7 µM (inactive) | 7.13 µM (inactive) | 38.1 µM (inactive) | > 100 µM (inactive) | 24.4 µM (inactive) | 23.7 µM (inactive) | – | 32.5 µM (inactive) | 4.85 µM (inactive) | 44.9 µM (inactive) | 24.7 µM (inactive) | – | 15.2 µM (inactive) | 22 µM (inactive)
Cc1cc(-c2nc3ccccc3s2)ccc1NC(=O)[C@H](C)N | 24.2 µM (inactive) | 24 µM (inactive) | 5.2 µM (inactive) | 10.9 µM (inactive) | 0.128 µM (active) | 14.4 µM (inactive) | 5.06 µM (inactive) | 13.8 µM (inactive) | – | 17.5 µM (inactive) | 10.4 µM (inactive) | – | 15.3 µM (inactive) | 6.95 µM (inactive) | 10.1 µM (inactive) | 13.1 µM (inactive) | 13.6 µM (inactive) | 7.18 µM (inactive) | 0.372 µM (active)
C=C1NC(=O)C(CC(C(=O)C(=O)Nc2c(C)cccc2C(C)(C)C)C(=O)c2ccc3ccccc3c2)C(=O)N1 (stereo unspecified) | – | – | > 100 µM (inactive) | > 100 µM (inactive) | > 100 µM (inactive) | > 100 µM (inactive) | > 100 µM (inactive) | – | – | > 100 µM (inactive) | > 100 µM (inactive) | – | > 100 µM (inactive) | > 100 µM (inactive) | > 100 µM (inactive) | > 100 µM (inactive) | > 100 µM (inactive) | > 100 µM (inactive) | > 100 µM (inactive)
CC(=O)NNC(=S)N/C=C1/C(=O)Oc2ccccc2C1=O | > 100 µM (inactive) | > 100 µM (inactive) | > 100 µM (inactive) | > 100 µM (inactive) | 5.2 µM (inactive) | > 100 µM (inactive) | > 100 µM (inactive) | > 100 µM (inactive) | > 100 µM (inactive) | > 100 µM (inactive) | > 100 µM (inactive) | – | > 100 µM (inactive) | > 100 µM (inactive) | > 100 µM (inactive) | > 100 µM (inactive) | > 100 µM (inactive) | > 100 µM (inactive) | > 100 µM (inactive)
CC1(C)N=C(N)N=C(N)N1c1cccc(OCc2cccc([N+](=O)[O-])c2)c1 | 8.91 µM (inactive) | > 53.1 µM (inactive) | – | 5.41 µM (inactive) | 38.3 µM (inactive) | 17.1 µM (inactive) | 9.27 µM (inactive) | > 76 µM (inactive) | 18.7 µM (inactive) | > 64.3 µM (inactive) | 3.29 µM (inactive) | > 78.3 µM (inactive) | > 55.7 µM (inactive) | 0.75 µM (active) | 1.6 µM (inactive) | 14.4 µM (inactive) | > 100 µM (inactive) | 17.7 µM (inactive) | 34.1 µM (inactive)
